{"source": "patent US6204289A", "about": "“Cembranoid inhibitors of nicotinic acetylcholine receptors” (priority 1998, dated 2001)", "test_system": "peripheral and neuronal AchRs", "experiment": "Inhibition of peripheral and neuronal AchRs (summary statement)", "procedure": "Cembranoids are cyclic diterpenoids naturally present in many plants and invertebrate animals. We discovered that cembranoids inhibit both peripheral and neuronal AchRs at concentrations ranging from 10^-15 molar to 10^-4 molar; cembranoids also increase the rate of receptor desensitization. Seventeen different cembranoid analogs were tested. There are two main differences between previously known AchR inhibitors and these new cembranoid inhibitors. […] Second, cembranoids are present in tobacco leaves, and therefore potentially have an effect on nicotine action in the brains of cigarette smokers. Nicotine-induced desensitization of neuronal acetylcholine receptors is related to behavioral tolerance or addiction to nicotine (6); since cembranoids increase receptor desensitization, they are likely to increase tobacco addictive properties. Thus, by extracting the cembranoids from tobacco, this could produce less addictive cigarettes (or any tobacco related product). On the other hand, addition of cembranoids to tobacco could possibly increase its addictive properties. In addition, cembranoids displace general anesthetics from the muscle-type AchR, and so they could ameliorate the undesirable side-effects of anesthesia in patients with Myasthenia gravis.\nWe discovered that cembranoids isolated from gorgonian-corals inhibit both peripheral and neuronal AchRs."}
{"compound": "C=C(C(=O)O)C1CC/C(C)=C/CC/C(C)=C/CCC2(C)OC2C1", "note": "(centres unmarked) [pseudoplexauric acid]", "values": [{"measurement": "potency relative to any previously known AchR inhibitors (factor)", "value": "at least 1000"}]}
{"compound": "eupalmerin acetate", "values": [{"measurement": "potency relative to any previously known AchR inhibitors (factor)", "value": "at least 1000"}]}
